Results on one molecule are retold here after doi:10.1101/2022.06.02.493408v1 (biorxiv, 2022).

This assay concerns the target T1, WT BetP (AMP-BetP) (Corynebacterium glutamicum, UniProt P54582).
T1 sequence (P54582 1-595): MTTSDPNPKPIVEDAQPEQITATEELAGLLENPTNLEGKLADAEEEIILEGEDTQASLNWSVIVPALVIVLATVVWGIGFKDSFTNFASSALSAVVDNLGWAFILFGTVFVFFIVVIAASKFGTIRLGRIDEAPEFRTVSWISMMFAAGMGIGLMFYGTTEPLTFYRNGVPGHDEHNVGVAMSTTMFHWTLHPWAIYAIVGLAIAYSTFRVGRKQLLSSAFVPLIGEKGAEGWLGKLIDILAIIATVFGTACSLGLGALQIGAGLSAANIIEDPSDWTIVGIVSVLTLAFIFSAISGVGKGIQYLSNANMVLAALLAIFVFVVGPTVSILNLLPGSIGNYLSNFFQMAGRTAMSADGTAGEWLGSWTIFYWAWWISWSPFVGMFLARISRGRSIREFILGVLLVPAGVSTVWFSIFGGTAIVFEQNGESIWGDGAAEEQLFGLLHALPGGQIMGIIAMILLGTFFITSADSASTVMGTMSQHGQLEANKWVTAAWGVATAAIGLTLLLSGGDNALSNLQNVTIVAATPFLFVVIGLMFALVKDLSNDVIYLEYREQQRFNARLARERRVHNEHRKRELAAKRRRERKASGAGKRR
Nature of the assay: biochemical.

SMILES strings stand for the structures.

For the molecule `C[N+](C)(C)CC(=O)[O-]` [betaine], the Kd is 188 ± 34 µM.
